Results on eight compounds are retold here after patent publication US7166440B2, “2,4,5-trichlorophenoxyalkyl carboxylic acid and a method for determining dioxins using the same” (priority 2003, dated 2007).

Series [1] has as its system monoclonal antibody of clone C-2 (anti-dioxin antibody). Nature of the series: Competitive EIA: inhibition of binding of clone C-2 monoclonal antibody to solid-phase antigen by free dioxin. More on the design: species or system mouse. The protocol:
(§1) Using various monoclonal antibodies, the specificity of the monoclonal antibodies to dioxin isomers was examined. The monoclonal antibodies were prepared in the following manner. An antibody-producing cell was injected into the abdominal cavity of a pristane-pretreated mouse. Th ascites fluid in the abdominal cavity caused by the growth of the cells was collected, and then a monoclonal antibody was purified by affinity chromatography using a protein G-Sepharose (manufactured by BIO-RAD Co.) as a carrier. Using three antibody-producing clones C-1, C-2 and C-3, respective monoclonal antibodies were prepared. The clones C-1, C-2 and C-3 produce monoclonal antibodies with respect to dibenzodioxin having chlorine atom at the 2-, 3-, 7-, and 8-positions.
(§2) To evaluate the specificity of the monoclonal antibody was performed according to the following principles. A solid-phase antigen (competitor) and a free dioxin (ligand) are allowed to compete with each other with respect to a free monoclonal antibody (anti-dioxin antibody). If the reactivity of the monoclonal antibody and the dioxin is higher than that of the monoclonal antibody and the solid-phase antigen, the binding of the monoclonal antibody to the solid-phase antigen is reduced. This reduction of the binding of the monoclonal antibody to the solid-phase antigen can be measured by color development method. This phenomenon can be applied to evaluate the specificity.
(§3) First, the immune antigen or the compound (IIa) conjugated with BSA that was produced in Example 2 was diluted with PBS to 1 μg/ml, and divided into each well of a 96-well assay plate (manufactured by Costar, Cat. No. 3590) in an amount of 50 μl. Then, the plate was sealed and allowed to stand at room temperature for one hour. Then, each well was washed with PBS containing 0.005% of Tween 20 three times. Next, 300 μl of Block Ace (manufactured by Snow Brand Milk Products Co., Ltd.) diluted with distilled water to a concentration of 25% was supplied to each well, and the plate was sealed and allowed to stand at 37° C. for two hours. Each well was washed with PBS containing 0.005% of Tween 20 three times. Then, a 25 μl of the dioxin compound solution of a final concentration of 5×10^−7 M was added to each well. The dioxin compound solution was prepared by diluting the dioxin with a dilution solvent comprising 20% DMSO and 0.01% of Triton X100. As controls, a dilution solvent in an amount of 25 μl was added to each well. Immediately after the addition of the dioxin compound solution or the dilution solvent, 25 μl of an antibody solution diluted with PBS containing 1 mg/ml of BSA was added to each well. The assay plate was stand at room temperature for one hour with slightly shaking.
(§4) After washing with PBS containing 0.005% of Tween 20 three times, 50 μl of the diluted HRP-labeled goat anti-mouse IgG (H+L) antibody (produced by affinity purification) was added to each well. The diluted HRP-labeled antibody was prepared by diluting the purchased HRP-labeled antibody to 2000 times as much with 10% Block Ace. The plate was allowed to stand at room temperature for one hour, followed by washing with PBS containing 0.005% of Tween 20 three times. Then, 50 μl of a HRP substrate, TMB (manufactured by KPL Co., Ltd.), was added to each well and allowed to stand at room temperature for 5 to 10 min. Then, 5 μl of a 1 M phosphate solution was added to each well, and the absorbance at a wavelength of 455 nm (655 nm for the reference) was measured with a spectrophotometer for a microtiter. The reactivity was evaluated by obtaining the absorbance (B0) at the time when the dioxin compound is not added, which is a control (diluent) and the absorbance (B) at the time when the dioxin compound is added. The inhibition rate was measured based on the following equation. Inhibition rate={(B0−B)/B0}×100 (%)
(§5) Evaluation was such that the larger this inhibition rate is, the higher the specificity of the anti-dioxin antibody to the dioxin compound.

Series [2] has as its system anti-dioxin antibody (monoclonal antibody) to 1,2,3,7,8-PeCDF. Type of series: binding, mouse. The note with it: solid-phase antigen (IIa), antibody to 1,2,3,7,8-PeCDF. As for the experimental part:
as §3, §4
An anti-dioxin antibody (monoclonal antibody) to 1,2,3,7,8-PeCDF is used as an antibody. A haptenized product of a solid-phase antigen 6-(2,4,5-trichlorophenoxy) hexanoic acid amide derivative (IIa) and the chlorine-containing organic compounds in Tables 2 and 3 were allowed to compete with each other to this anti-dioxin antibody so that a competitive reaction was effected in the same manner as in Example 3. Then, the cross-reactivity was examined.

Series [3] concerns monoclonal antibody of clone C-3 (anti-dioxin antibody). Put plainly: Competitive EIA: inhibition of binding of clone C-3 monoclonal antibody to solid-phase antigen by free dioxin. Also on record: species or system mouse. The protocol:
as §1, §2, §3, §4, §5

For series [4], the system named is monoclonal antibody of clone C-1 (anti-dioxin antibody). Put plainly: Competitive EIA: inhibition of binding of clone C-1 monoclonal antibody to solid-phase antigen by free dioxin. Also on record: species or system mouse. The protocol: as §1, §2, §3, §4, §5
The conditions of series [5]: toxicity equivalent factor of the dioxins used; cited from earlier work.
Where [6] appears, read: solid-phase antigen * (haptenized product of 6-(2,4,5-trichlorophenoxy) hexanoic acid amide derivative IIa), dioxin compound 5×10^−7 M.
The mark [7] stands for this setting: solid-phase antigen immunogen 2, dioxin compound final concentration 5×10^−7 M.
[8] abbreviates: solid-phase antigen immunogen 3, dioxin compound final concentration 5×10^−7 M.
Setting [9] is: solid-phase antigen immunogen 1, dioxin compound final concentration 5×10^−7 M.

Where two headings read alike, the source gives them in different places.

Consider `Clc1c(Cl)c(Cl)c2c(oc3c(Cl)c(Cl)c(Cl)c(Cl)c32)c1Cl` [OCDF], for which the Inhibition rate amounted to 7.2% in series [1] (setting [6]); 18.1% in series [1] (setting [7]); 4.9% in series [3] (setting [6]); 1.3% in series [3] (setting [8]); 27.0% in series [4] (setting [6]); 1.1% in series [4] (setting [9]). The compound further showed a cross reaction in series [2] (Table 2, dioxins having TEF) of 8.0%. Moreover, in series [5], the TEF value is recorded as 0.0001.

On to `Clc1cc2c(cc1Cl)Oc1c(Cl)c(Cl)c(Cl)c(Cl)c1O2` [1,2,3,4,7,8-HxCDD], for which the Inhibition rate in series [1] (setting [6]) is on record as 19.1%; in series [1] (setting [7]), −9.4%; in series [3] (setting [6]), −2.3%; in series [3] (setting [8]), −2.5%; in series [4] (setting [6]) it was 14.1%; in series [4] (setting [9]), −1.4%. This compound also came in with a cross reaction in series [2] (Table 2, dioxins having TEF) of 24.8%. In addition, the TEF value in series [5] is reported as 0.1.

Turning to `Clc1cc2oc3c(Cl)c(Cl)c(Cl)c(Cl)c3c2c(Cl)c1Cl` [1,2,3,4,7,8,9-HpCDF], the Inhibition rate in series [1] (setting [6]) is on record as 7.5%; in series [1] (setting [7]), 27.7%; in series [3] (setting [6]), 11.3%; in series [3] (setting [8]), 6.1%; in series [4] (setting [6]), 7.1%; in series [4] (setting [9]), 5.8%. This compound displayed a cross reaction in series [2] (Table 2, dioxins having TEF) of 28.7%. For the same compound, in series [5], the TEF value is reported as 0.01.

In the case of `Clc1c(Cl)c(Cl)c2c(c1Cl)Oc1c(Cl)c(Cl)c(Cl)c(Cl)c1O2` [OCDD], the Inhibition rate in series [1] (setting [6]) is recorded as 9.4%; in series [1] (setting [7]) it was 0.1%; in series [3] (setting [6]) it was −3.7%; in series [3] (setting [8]) it was −0.4%; in series [4] (setting [6]), 1.6%; in series [4] (setting [9]), −2.5%. In series [2] (Table 2, dioxins having TEF), the cross reaction was below 0.1%. Besides, the TEF value in series [5] is reported as 0.0001.

As to `Clc1cc2oc3cc(Cl)c(Cl)c(Cl)c3c2cc1Cl` [1,2,3,7,8-PeCDF], the Inhibition rate in series [1] (setting [6]) was determined as 68.6%; in series [1] (setting [7]), 17.5%; in series [3] (setting [6]), 23.2%; in series [3] (setting [8]) it was 0.5%; in series [4] (setting [6]), 27.1%; in series [4] (setting [9]), 11.8%. In addition, the cross reaction in series [2] (Table 2, dioxins having TEF) is reported as 100.0%; in series [2] (Table 3, other chlorine-containing organic compounds and polycyclic aromatic hydrocarbons), 100.0%. The TEF value in series [5] is recorded as 0.05.

Regarding `Clc1cc2c(oc3cc(Cl)c(Cl)c(Cl)c32)c(Cl)c1Cl` [1,2,3,6,7,8-HxCDF], the Inhibition rate in series [1] (setting [6]) is listed as 5.0%; in series [1] (setting [7]), 9.4%; in series [3] (setting [6]), 4.1%; in series [3] (setting [8]) it was 2.9%; in series [4] (setting [6]) it was 7.0%; in series [4] (setting [9]), 3.5%. This compound also registered a cross reaction in series [2] (Table 2, dioxins having TEF) of 36.6%. Besides, the TEF value in series [5] is 0.1.

Regarding `Clc1cc2oc3c(Cl)c(Cl)c(Cl)c(Cl)c3c2cc1Cl` [1,2,3,4,7,8-HxCDF], the Inhibition rate was −11.2% in series [1] (setting [6]); 5.2% in series [1] (setting [7]); 0.8% in series [3] (setting [6]); 4.9% in series [3] (setting [8]); −1.5% in series [4] (setting [6]); 3.3% in series [4] (setting [9]). In addition, the cross reaction in series [2] (Table 2, dioxins having TEF) is 45.9%. Moreover, the TEF value in series [5] is 0.1.

As for `Clc1cc2c(oc3c(Cl)c(Cl)c(Cl)cc32)c(Cl)c1Cl` [2,3,4,6,7,8-HxCDF], the Inhibition rate in series [1] (setting [6]) was found to be 82.8%; in series [1] (setting [7]), 28.1%; in series [3] (setting [6]), 47.9%; in series [3] (setting [8]), 13.2%; in series [4] (setting [6]) it was 44.8%; in series [4] (setting [9]), 31.1%. Moreover, the cross reaction in series [2] (Table 2, dioxins having TEF) amounted to 43.8%. Also, in series [5], the TEF value was 0.1.
